From patent publication EP4329743B1 (priority 2021, dated 2022)

Assays:
[1] = system: Neuraminidase (EC 3.2.1.18); assay: Neuraminidase activity assay (colorimetric kit, Sigma Aldrich MAK121); assay type: biochemical; conditions: maximum activity set 100%; mean of three independent experiments; Figure 4
Protocol: Neuraminidase (EC 3.2.1.18) also known as sialidase is an enzyme that hydrolyzes terminal sialic acid residues on polysaccharide chains. It is predominantly expressed on the surface of viruses and bacteria. For activity measurement, the activity was measured using the neuraminidase activity kit from Sigma Aldrich (Cat.No.: MAK121). Accordingly, the neuraminidase activity is determined by an enzymatic essay in which the sialic acid released by neuraminidase results in the colorimetric product directly proportional to neuraminidase activity in the sample. The reaction master mixture contained assay buffer, (+/-) substrate, cofactors, neuraminidase, and dye-reagent. The activity is expressed as units/L and maximum activity was arbitrarily set 100%. The effect of ethyl pyruvate and ethyl lactate on enzyme activity was evaluated by comparing the change of the absorbance against the samples with substrate (maximum activity) and without the substrate (blank).

[2] = system: influenza virus H9N2; assay type: cell-based; conditions: MDCK II cells, H9N2, 1 h infection, 2 days culture; ethyl pyruvate 42 mM; Figure 5
[3] = system: inflammatory cytokines such as TNF-alpha, IL-1β, IL-6 and IL-8; assay: Release of inflammatory cytokines from LPS-stimulated human whole blood (cytometric bead array); assay type: cell-based; conditions: whole blood diluted 1:5, LPS 10ng/ml, 1 to 20 mM, 6 h; Figure 6
Protocol: Human heparinized whole blood was diluted with RPMI 1640 medium (ThermoFisher Scientific) (1:5) and incubated with LPS (10ng/ml) and increasing concentration of ethyl pyruvate (A-D) or ethyl lactate (E-H) (1 to 20 mM) for 6 h at 37°C with 5% CO2. Following incubation, the plates were centrifuged at 2000g for 10 min and the proinflammatory cytokines were analysed by cytometric bead array using a FACSCalibur and the CellQuestTMSoftware (BD Biosciences).

[4] = system: MDCK II cells

Structure (SMILES) | activity of neuraminidase [1] | cytopathic effect of the influenza virus (cellular structures and confluency) [2] | release of inflammatory cytokines (TNF-alpha, IL-1β, IL-6, IL-8) [3] | toxic effect on MDCK II cells [4]
CCOC(=O)C(C)O (centres unmarked) [ethyl lactate] | only minimum inhibitory effect | does not protect MDCK II cells from the cytopathic effect of the virus | effectively inhibited | no toxic effect
CCOC(=O)C(C)=O [ethyl pyruvate, Ethyl pyruvate] | inhibits activity of neuraminidase in a concentration-dependent manner | the cellular structures and confluency is preserved | effectively inhibited | no toxic effect
